Structures can show the parent of a compound that is named as a salt.
Columns and labels:
[1] = Mouse whole blood stability; assay type: in vitro ADME; conditions: 37° C.
Protocol: (§1) Test compounds were incubated for a total of 240 minutes at 37° C. in whole mouse and whole human blood. The compounds were added at time-point 0 and sample aliquots were withdrawn at each time point (usually 0, 60 and 240 minutes). The samples were extracted using protein precipitation. Analysis of extracted samples was achieved using HPLC with MS detection. Several types of HPLC columns and mobile phase were used depending of the polarity of the compound. The compound stability was determined by the % of compound remaining at 240 minutes (peak response of compound at 240 minutes/peak response at 0 minutes×100).

[2] = Human whole blood stability; assay type: in vitro ADME; conditions: 37° C.
Protocol: as §1

| Structure (SMILES) | Blood stability (% of compound remaining after 240 min.) Mouse Blood [1] | Blood stability (% of compound remaining after 240 min.) Human Blood [2] |
| --- | --- | --- |
| N[C@@H](Cc1ccccc1)C(=O)NCCCS(=O)(=O)O [Compound A1] | + (+: <30%) |  |
| O=C(NCCCS(=O)(=O)O)[C@@H]1CCCN1 [Compound A3] | ++ (++: 30-75%) |  |
| CC(C)C[C@H](N)C(=O)NCCCS(=O)(=O)O [Compound A5] | + (+: <30%) | + (+: <30%) |
| CSCC[C@H](N)C(=O)NCCCS(=O)(=O)O [Compound A6] | + (+: <30%) | ++ (++: 30-75%) |
| C[C@H](N)C(=O)NCCCS(=O)(=O)O [Compound A8] | ++ (++: 30-75%) | + (+: <30%) |
| C[C@@H](N)C(=O)NCCCS(=O)(=O)O [Compound A9] | +++ (+++: >75%) | +++ (+++: >75%) |
| NCC(=O)NCCCS(=O)(=O)O [Compound A10] | ++ (++: 30-75%) | ++ (++: 30-75%) |
| CCC(C)[C@H](N)C(=O)NCCCS(=O)(=O)O (stereo partly drawn) [Compound A11] | +++ (+++: >75%) | +++ (+++: >75%) |
| CSCC[C@@H](N)C(=O)NCCCS(=O)(=O)O [Compound A12] | +++ (+++: >75%) | +++ (+++: >75%) |
| N[C@@H](Cc1c[nH]cn1)C(=O)NCCCS(=O)(=O)O [Compound A13] | +++ (+++: >75%) | +++ (+++: >75%) |
| CC(C)(N)C(=O)NCCCS(=O)(=O)O [Compound A14] | +++ (+++: >75%) | +++ (+++: >75%) |
| N[C@H](C(=O)NCCCS(=O)(=O)O)c1ccccc1 [Compound A15] | + (+: <30%) | ++ (++: 30-75%) |
| N[C@@H](Cc1c[nH]c2ccccc12)C(=O)NCCCS(=O)(=O)O [Compound A16] | ++ (++: 30-75%) | +++ (+++: >75%) |
| N[C@@H](CCC(=O)OCc1ccccc1)C(=O)NCCCS(=O)(=O)O [Compound A19] | + (+: <30%) | + (+: <30%) |

Results, then the molecule that gave them:

| Blood stability (% of compound remaining after 240 min.) Mouse Blood [1] | Blood stability (% of compound remaining after 240 min.) Human Blood [2] | Structure (SMILES) |
| --- | --- | --- |
| ++ (++: 30-75%) | +++ (+++: >75%) | CC(C)(CC(=O)O)CC(=O)NCCCS(=O)(=O)O [Compound B3, 3,3-dimethyl-5-oxo-5-[(3-sulfopropyl)amino]pentanoic Acid Sodium Salt] |
| +++ (+++: >75%) | +++ (+++: >75%) | CC(C)(CCC(=O)NCCCS(=O)(=O)O)C(=O)O [Compound B4] |
| +++ (+++: >75%) | +++ (+++: >75%) | O=C(O)CCC(=O)NCCCS(=O)(=O)O [Compound B5] |
| + (+: <30%) | + (+: <30%) | CC(=O)Oc1ccc(COC(=O)NCCCS(=O)(=O)O)cc1 [Compound C1, 3-(p-acetyloxybenzyloxycarbonyl)amino-1-propanesulfonic Acid Sodium Salt] |
| ++ (++: 30-75%) | +++ (+++: >75%) | CC(OC(=O)CCC(=O)O)OC(=O)NCCCS(=O)(=O)O (stereo not drawn) [Compound C4] |
| + (+: <30%) | + (+: <30%) | CC(OC(=O)CCC(=O)OCc1ccccc1)OC(=O)NCCCS(=O)(=O)O (stereo not drawn) [Compound C5] |
| + (+: <30%) | +++ (+++: >75%) | CC(OC(=O)CC(C)(C)CC(=O)OCc1ccccc1)OC(=O)NCCCS(=O)(=O)O (stereo not drawn) [Compound C7] |
| +++ (+++: >75%) | +++ (+++: >75%) | CC(OC(=O)CC(C)(C)CC(=O)O)OC(=O)NCCCS(=O)(=O)O (stereo not drawn) [Compound C8] |
| ++ (++: 30-75%) | ++ (++: 30-75%) | CC(OC(=O)CCCCC(=O)O)OC(=O)NCCCS(=O)(=O)O (stereo not drawn) [Compound C9] |
| + (+: <30%) | + (+: <30%) | CC(OC(=O)CCCCC(=O)OCc1ccccc1)OC(=O)NCCCS(=O)(=O)O (stereo not drawn) [Compound C10] |
| +++ (+++: >75%) | +++ (+++: >75%) | CC(OC(=O)CCCC(=O)O)OC(=O)NCCCS(=O)(=O)O (stereo not drawn) [Compound C11] |
| + (+: <30%) | ++ (++: 30-75%) | CC(OC(=O)CCCC(=O)OCc1ccccc1)OC(=O)NCCCS(=O)(=O)O (stereo not drawn) [Compound C12] |
| + (+: <30%) | + (+: <30%) | CC(OC(=O)NCCCS(=O)(=O)O)OC(=O)C(C)(C)c1cccs1 (stereo not drawn) [Compound C13] |
| ++ (++: 30-75%) | +++ (+++: >75%) | CC(OC(=O)NCCCS(=O)(=O)O)OC(=O)C(C)(C)c1ccccc1 (stereo not drawn) [Compound C14] |
| + (+: <30%) | ++ (++: 30-75%) | CC(OC(=O)NCCCS(=O)(=O)O)OC(=O)C(C)(C)C (stereo not drawn) [Compound C15] |
| + (+: <30%) | ++ (++: 30-75%) | CC(OC(=O)NCCCS(=O)(=O)O)OC(=O)c1ccccc1 (stereo not drawn) [Compound C16, 4-aza-7-methyl-6,8,-dioxa-5,9,-dioxo-9-phenyl-1-nonanesulfonic Acid Sodium Salt] |
| + (+: <30%) |  | CC(OC(=O)NCCCS(=O)(=O)O)OC(=O)C1CCCCC1 (stereo not drawn) [Compound C17] |
| + (+: <30%) |  | CC(OC(=O)NCCCS(=O)(=O)O)OC(=O)C(C)C (stereo not drawn) [Compound C18] |
| + (+: <30%) |  | CC(=O)OC(C)OC(=O)NCCCS(=O)(=O)O (stereo not drawn) [Compound C19, 4-aza-7-methyl-6,8,-dioxa-5,9,-dioxo-1-decanesulfonic acid Sodium Salt] |
| + (+: <30%) | ++ (++: 30-75%) | CC(C)(C)C(=O)OC(OC(=O)NCCCS(=O)(=O)O)C1CCCCC1 (stereo not drawn) [Compound C20] |
| + (+: <30%) | ++ (++: 30-75%) | CC(=O)OC(OC(=O)NCCCS(=O)(=O)O)C(C)C (stereo not drawn) [Compound C22] |
| + (+: <30%) | ++ (++: 30-75%) | CC(C)C(OC(=O)NCCCS(=O)(=O)O)OC(=O)C(C)(C)C (stereo not drawn) [Compound C23] |
| + (+: <30%) | ++ (++: 30-75%) | CC(=O)OC(OC(=O)NCCCS(=O)(=O)O)C(C)(C)C (stereo not drawn) [Compound C24] |

— patent US11020360B2, “Methods, compounds, compositions and vehicles for delivering 3-amino-1-propanesulfonic acid” (Bellus Health, Inc., priority 2006, dated 2021)
